{
  "source": "patent US20090298045A1",
  "about": "“Method For Selectively Expanding, Selecting And Enriching Stem/Progenitor Cell Populations” (Tel Hashomer-Medical Research, Infrastructure And Services …, priority 2004, published 2009)",
  "type_in_all_cases": "cell-based, human",
  "key": {"UCB-derived CD133+ cells": {"system": "UCB-derived CD133+ cells", "assay": "Ex vivo expansion of purified UCB-derived CD133+ cells with cytokines, CD133+ cell fraction by flow cytometry", "settings": "for CD133+ cell population with cytostatic agent: colchicine 2.5 ng/ml, two weeks expansion; for Fold enrichment (CD133+): with vs without colchicine 2.5 ng/ml, two weeks", "protocol": "Cells were obtained from human umbilical cord blood (UCB) after normal fall-term delivery. The cells were layered on a Ficoll-Hypaque gradient (1.077 g/ml Sigma), and centrifuged at 500 g for 30 minutes. The mononuclear cells in the interface layer were collected and washed three times in phosphate-buffered saline (PBS; Biological Industries) containing 0.5% Bovine serum albumin (BSA). To purify the CD133^+ cells, the mononuclear cell fraction was subjected to two cycles of immunomagnetic bead separation using a MiniMACS CD133 progenitor cell isolation kit (Miltenyi Biotec,), according to the manufacturer's recommendations.\n(§1) Purified CD133^+ cells were cultured in 24-well culture plate at densities of 2-4×10^4 cells in alpha-MEM medium (Biological Industries) supplemented with 10% fetal calf serum (Biological Industries) and the following human recombinant cytokines (Pepro Tech, Inc., Rocky Hill, N.J., USA): Trombopoietin, interleukin-6, FLT-3 ligand and Stem Cell Factor, at final concentration of 50 ng/ml each as well as interleukin-3 and IL2 at 20 ng/ml, in the absence or presence of colchicine in a concentration scale as indicated. Cells were expanded at 37° C. in a humidified atmosphere of 5% CO2 in air.\n(§2) Cultures were depopulated twice a week and a fresh medium in which growth factors and colchicine were added. At various time points, cells were counted after staining with trypan blue and harvested cells were used for enumeration of CD133^+ cells following immunophenotype analysis.\n(§3) The cells were washed with a PBS solution containing 1% BSA and stained (at 4° C. for 30 min) with fluorescein isothiocyanate (FITC)- or phycoerythrin (PE)-conjugated antibodies that are specifically described in the next sections. Cells were washed in the abovementioned buffer and analyzed by flow cytometer (Becman coulter). Cells were passed at a rate of up to 1000 cells/second, using a 488-nm argon laser beam as the light source for excitation.\n(§4) The percentage of CD133^+ cell fraction from total cells was determined by flow cytometry using. PE-anti-CD133^+ antibody (Miltenyi Biotec). Fold enrichment was calculated by dividing the CD133^+ cell percentage of culture growing with cytostatic agent by the CD133^+ cell percentage of culture growing without cytostatic agent. Since cultures were depopulated twice a week, the culture volume was calculated by multiplying the actual volume with the number of passages. Fold expansion was calculated by dividing the CD133^+ cell content of the culture by the initial number of cultured CD133^+ cells."}, "[1]": {"system": "CD34+CD38- early stem cell sub-population of UCB derived CD133+ cells", "assay": "Determination of CD34+CD38- early stem cell subset in cultured CD133+ cells by flow cytometry", "settings": "for CD34+38- cell population with cytostatic agent: colchicine 2.5 ng/ml, one week expansion; for Fold enrichment (CD34+38-): with vs without colchicine 2.5 ng/ml, one week", "protocol": "as §1, §3\nThe percentages of early stem cell subsets were determined from the purified fresh and/or cultured CD133^+ cell fraction. Cells were dually stained with PE anti-CD34 and FITC anti-CD38 (DAKO) for determination of CD34^+ CD38^− cells by flow cytometry analyses with PE anti-CD133^+ antibody (Miltenyi Biotec)."}, "[2]": {"system": "Fresh, enriched CD133+ stem cells", "assay": "Cell counts and fold expansion of CD133+ stem cells after ex-vivo expansion", "settings": "colchicine 2.5 ng/ml; for Fold expansion of CD133+ cells: 2 weeks vs T0", "protocol": "as §1, §2, §4"}, "[3]": {"settings": "Exp. 1, T0 0.4 × 10^3 CD133+ cells"}, "[4]": {"settings": "Exp. 2, T0 0.2 × 10^3 CD133+ cells"}, "[5]": {"settings": "Exp. 3, T0 0.4 × 10^3 CD133+ cells"}},
  "data": [
    {"compound": "COc1cc2c(c(OC)c1OC)-c1ccc(OC)c(=O)cc1[C@@H](NC(C)=O)CC2", "note": "[colchicine]", "values": [
      {"measurement": "optimal concentration in which the highest CD133+ cells enrichment was achieved", "setting": "UCB-derived CD133+ cells; 2 weeks expansion, three independent experiments, FIG. 3", "value": 2.5, "unit": "ng/mL"},
      {"measurement": "CD133+ cell population with cytostatic agent", "setting": "UCB-derived CD133+ cells; Donor # 1 (first line)", "value": 4, "unit": "%"},
      {"measurement": "Fold enrichment (CD133+)", "setting": "UCB-derived CD133+ cells; Donor # 1 (first line)", "value": 4},
      {"measurement": "CD133+ cell population with cytostatic agent", "setting": "UCB-derived CD133+ cells; Donor # 1", "value": 7, "unit": "%"},
      {"measurement": "Fold enrichment (CD133+)", "setting": "UCB-derived CD133+ cells; Donor # 1", "value": 7},
      {"measurement": "CD133+ cell population with cytostatic agent", "setting": "UCB-derived CD133+ cells; Donor # 3", "value": 15, "unit": "%"},
      {"measurement": "Fold enrichment (CD133+)", "setting": "UCB-derived CD133+ cells; Donor # 3", "value": 2.5},
      {"measurement": "CD133+ cell population with cytostatic agent", "setting": "UCB-derived CD133+ cells; Mean ± SD of three donors", "value": "8.7 ± 5.7", "unit": "%"},
      {"measurement": "Fold enrichment (CD133+)", "setting": "UCB-derived CD133+ cells; Mean ± SD of three donors", "value": "4.5 ± 2.3"},
      {"measurement": "enrichment of UCB-derived CD133+ cell-fraction (in words)", "setting": "UCB-derived CD133+ cells; concentration scale, 2 weeks expansion, FIG. 3", "value": "dose-dependent enrichment"},
      {"measurement": "percentage of CD34+CD38- sub-population, treated vs un-treated cultures (in words)", "setting": "[1]; 1 week in culture", "value": "increase in the percentage"},
      {"measurement": "CD34+38- cell population with cytostatic agent", "setting": "[1]; Donor # 3", "value": 15, "unit": "%"},
      {"measurement": "Fold enrichment (CD34+38-)", "setting": "[1]; Donor # 3", "value": 1.7},
      {"measurement": "CD34+38- cell population with cytostatic agent", "setting": "[1]; Donor # 4", "value": 5, "unit": "%"},
      {"measurement": "Fold enrichment (CD34+38-)", "setting": "[1]; Donor # 4", "value": 10},
      {"measurement": "CD133+ cells, T(2 weeks), with colchicine", "setting": "[2]; [3]", "value": "5.4 × 10^3"},
      {"measurement": "Total cells, T(2 weeks), with colchicine", "setting": "[2]; [3]", "value": "135 × 10^3"},
      {"measurement": "Fold expansion of CD133+ cells", "setting": "[2]; Exp. 1", "value": "(X 13.5)"},
      {"measurement": "CD133+ cells, T(2 weeks), with colchicine", "setting": "[2]; [4]", "value": "4.7 × 10^3"},
      {"measurement": "Total cells, T(2 weeks), with colchicine", "setting": "[2]; [4]", "value": "68 × 10^3"},
      {"measurement": "Fold expansion of CD133+ cells", "setting": "[2]; Exp. 2", "value": "(X 23.5)"},
      {"measurement": "CD133+ cells, T(2 weeks), with colchicine", "setting": "[2]; [5]", "value": "4.1 × 10^3"},
      {"measurement": "Total cells, T(2 weeks), with colchicine", "setting": "[2]; [5]", "value": "27 × 10^3"},
      {"measurement": "Fold expansion of CD133+ cells", "setting": "[2]; Exp. 3", "value": "(X 10.2)"}
    ]}
  ]
}
